What was measured:
[1] = Inhibition of protein phosphatase (PP2A) at 250 uM
Homo sapiens = organism: Homo sapiens; assay: Inhibition of protein phosphatase (PP2A) at 10 uM using fluorescein diphosphate
[2] = system: Serine/threonine-protein phosphatase 2A catalytic subunit alpha; assay: Inhibitory activity against protein phosphatase (PP2A) at concentration of 1 uM using fluorescein diphosphate as substrate
[3] = Inhibition of protein phosphatase (PP2A) at 100 uM
[4] = Inhibitory activity against protein phosphatase (PP2A) at 1 uM using fluorescein diphosphate
[5] = system: Serine/threonine-protein phosphatase 2A catalytic subunit alpha; assay: Inhibitory activity against protein phosphatase (PP2A) at concentration of 100 uM using fluorescein diphosphate as substrate
[6] = system: Serine/threonine-protein phosphatase 2A catalytic subunit alpha; assay: Inhibitory activity against protein phosphatase (PP2A) at concentration of 10 uM using fluorescein diphosphate as substrate
[7] = system: Serine/threonine-protein phosphatase 2A catalytic subunit alpha; assay: Inhibitory activity against protein phosphatase (PP2A) at a concentration of 200 uM using fluorescein diphosphate as substrate
[8] = system: Serine/threonine-protein phosphatase 2A catalytic subunit alpha; assay: Inhibitory activity against protein phosphatase (PP2A) at a concentration of 150 uM using fluorescein diphosphate as substrate
[9] = system: Serine/threonine-protein phosphatase 2A catalytic subunit alpha; assay: Inhibitory activity against protein phosphatase (PP2A) at a concentration of 125 uM using fluorescein diphosphate as substrate
[10] = molecular target: T1, Serine/threonine-protein phosphatase 2A activator (Homo sapiens) (UniProt Q15257); assay: Inhibitory activity against protein phosphatase (PP2A) at concentration of 250 uM using fluorescein diphosphate as substrate
T1 sequence (whole entry): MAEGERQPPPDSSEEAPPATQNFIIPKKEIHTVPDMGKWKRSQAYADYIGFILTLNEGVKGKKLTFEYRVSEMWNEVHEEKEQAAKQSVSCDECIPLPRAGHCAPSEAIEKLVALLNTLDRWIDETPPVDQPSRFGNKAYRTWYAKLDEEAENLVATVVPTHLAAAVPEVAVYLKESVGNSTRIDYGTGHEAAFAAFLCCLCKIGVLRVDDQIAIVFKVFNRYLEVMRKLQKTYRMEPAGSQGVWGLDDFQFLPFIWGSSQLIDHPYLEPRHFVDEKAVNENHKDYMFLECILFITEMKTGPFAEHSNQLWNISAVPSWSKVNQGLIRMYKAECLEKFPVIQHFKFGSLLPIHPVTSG

[11] = molecular target: T1, Serine/threonine-protein phosphatase 2A activator (Homo sapiens); assay: (§1) Inhibitory activity against protein phosphatase (PP2A) at a concentration of 250 uM using fluorescein diphosphate as substrate
[12] = molecular target: T1, Serine/threonine-protein phosphatase 2A activator (Homo sapiens); assay: Inhibitory activity against protein phosphatase (PP2A) at a concentration of 100 uM using fluorescein diphosphate as substrate
[13] = molecular target: T1, Serine/threonine-protein phosphatase 2A activator (Homo sapiens); assay: Inhibitory activity against protein phosphatase (PP2A) at a concentration of 150 uM using fluorescein diphosphate as substrate
[14] = molecular target: T2, Serine/threonine-protein phosphatase 2A 55 kDa regulatory subunit B alpha isoform (Homo sapiens) (UniProt P63151); assay: as §1
T2 sequence (whole entry): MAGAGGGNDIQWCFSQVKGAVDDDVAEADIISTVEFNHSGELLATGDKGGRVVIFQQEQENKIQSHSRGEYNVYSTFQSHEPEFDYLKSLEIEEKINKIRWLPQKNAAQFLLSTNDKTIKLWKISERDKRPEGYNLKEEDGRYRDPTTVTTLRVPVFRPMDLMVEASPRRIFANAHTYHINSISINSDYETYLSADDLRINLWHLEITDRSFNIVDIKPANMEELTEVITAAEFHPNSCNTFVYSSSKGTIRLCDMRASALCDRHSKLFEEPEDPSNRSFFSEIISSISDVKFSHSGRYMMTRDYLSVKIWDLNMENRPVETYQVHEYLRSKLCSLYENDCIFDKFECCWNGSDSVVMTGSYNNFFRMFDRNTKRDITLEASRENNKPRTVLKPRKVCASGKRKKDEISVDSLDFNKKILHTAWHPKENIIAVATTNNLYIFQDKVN

Row | SMILES | inhibition [1] [%] | inhibition (Homo sapiens) [%] | inhibition [3] [%] | inhibition [4] [%] | other results
1 | CC(CCC[C@H]1O[C@@H]([C@]2(C)CC[C@@H](Br)C(C)(C)O2)CC[C@]1(C)O)CC[C@H](O)[C@@]1(C)CC[C@H](C(C)(C)O)O1 (stereo partly specified) | 74.5 | 45.9 | 57.8 |  | inhibition [2]: 43.6%
2 | CC(C)(O)[C@H]1CC[C@](C)([C@@H](O)CC[C@@](O)(CO)C2=CC[C@H]3O[C@@H]([C@]4(C)CC[C@@H](Br)C(C)(C)O4)CC[C@]3(C)O2)O1 | 97.8 | 31.8 | 89.6 | 15.2 | 
3 | C/C(=C/C[C@@H](O)[C@]1(C)CC[C@H](C(C)(C)O)O1)[C@H]1CC[C@H]2O[C@@H]([C@]3(C)CC[C@@H](Br)C(C)(C)O3)CC[C@]2(C)O1 | 59.8 |  | 6.5 |  | inhibition [7]: 35.8%; inhibition [8]: 32.7%; inhibition [9]: 18.8%
4 | C=C(CC[C@H]1O[C@@H](C(C)(C)O)CC[C@]1(C)O)[C@H]1CC[C@H]2O[C@@H]([C@]3(C)CC[C@@H](Br)C(C)(C)O3)CC[C@]2(C)O1 | 81.3 | 6.2 | 74.7 | 0 | 
5 | CC(C)(O)[C@H]1CC[C@](C)([C@@H](O)CC[C@](O)(CO)C2=CC[C@H]3O[C@@H]([C@]4(C)CC[C@@H](Br)C(C)(C)O4)CC[C@]3(C)O2)O1 | 100 | 93.2 | 99.1 | 52.8 | 
6 | C=C(CC[C@@H](O)[C@]1(C)CC[C@H](C(C)(C)O)O1)[C@H]1CC[C@H]2O[C@@H]([C@]3(C)CC[C@@H](Br)C(C)(C)O3)CC[C@]2(C)O1 |  |  |  |  | inhibition [5]: 66.8%; inhibition [10]: 95.3%; inhibition [6]: 23.7%; inhibition [2]: 7.5%
7 | C=C(CC[C@H](O)[C@@]1(C)CC[C@H](C(C)(C)O)O1)[C@H]1CC[C@H]2O[C@@H]([C@]3(C)CC[C@@H](Br)C(C)(C)O3)CC[C@]2(C)O1 |  | 12.2 |  | 8.2 | inhibition [11]: 37.7%; inhibition [12]: 25.2%
8 | C=C(CC[C@H](O)[C@@]1(C)CC[C@H](C(C)(C)O)O1)[C@H]1CC[C@H]2O[C@@H]([C@]3(C)CC[C@@H](Br)C(C)(C)O3)CC[C@@]2(C)O1 | 66.4 |  | 11.4 |  | inhibition [7]: 47.8%; inhibition [13]: 26.1%; inhibition [9]: 24%
9 | C/C(=C\C[C@H](O)[C@@]1(C)CC[C@H](C(C)(C)O)O1)[C@H]1CC[C@H]2O[C@@H]([C@]3(C)CC[C@@H](Br)C(C)(C)O3)CC[C@@]2(C)O1 |  | 41.9 | 99.5 | 17.9 | inhibition [14]: 100%
10 | C=C([C@H](O)C[C@H](O)[C@@]1(C)CC[C@H](C(C)(C)O)O1)[C@H]1CC[C@H]2O[C@@H]([C@]3(C)CC[C@@H](Br)C(C)(C)O3)CC[C@]2(C)O1 | 79.3 | 45.6 | 65.1 | 42.2 | 
11 | C=C([C@@H](O)C[C@H](O)[C@@]1(C)CC[C@H](C(C)(C)O)O1)[C@H]1CC[C@H]2O[C@@H]([C@]3(C)CC[C@@H](Br)C(C)(C)O3)CC[C@]2(C)O1 | 100 | 93.4 | 100 | 41.1 | 

More lines, main results first:

Row | inhibition [1] [%] | inhibition (Homo sapiens) [%] | inhibition [3] [%] | inhibition [4] [%] | SMILES | other results
12 | 66.5 |  |  |  | C=C(CC[C@H](O)[C@@]1(C)CC[C@H](C(C)(C)O)O1)[C@H]1CC[C@H]2O[C@]3(C)CC[C@@H](Br)C(C)(C)O[C@H]3CC[C@]2(C)O1 | inhibition [5]: 59.7%; inhibition [6]: 20.4%; inhibition [2]: 18.9%
13 | 55.4 | 0 | 40.4 | 0 | C=C(CC[C@H](O)[C@@]1(C)CC[C@H](C(C)(C)O)O1)[C@H]1CC[C@H]2O[C@@H]([C@]3(C)CC[C@@H](C(C)(C)O)O3)CC[C@]2(C)O1 | 
14 | 57.2 | 4.7 | 65.1 | 0 | C=C(CC[C@H](O)[C@@]1(C)CC[C@H](C(C)(C)O)O1)[C@H]1CC[C@H]2O[C@@H]([C@]3(C)CC[C@@H](C(C)(C)OC)O3)CC[C@]2(C)O1 | 
15 | 63.2 | 40.1 | 49.4 | 33.7 | C=C(CC[C@H](O)[C@@]1(C)CC[C@H](C(C)(C)O)O1)[C@H]1CC[C@H]2O[C@@H]([C@]3(C)CCC(=O)O3)CC[C@]2(C)O1 | 
16 | 55.4 | 2.7 | 43.1 | 0 | C=C(CC[C@H](O)[C@@]1(C)CC[C@H](C(C)(C)O)O1)[C@H]1CC[C@H]2O[C@@H]([C@]3(C)CC[C@](OC)(C(C)C)O3)CC[C@]2(C)O1 | 

From ChEMBL document CHEMBL1136676, “The inhibitory effects of squalene-derived triterpenes on protein phosphatase PP2A” (Bioorg Med Chem Lett, 2003)
